What all share (format): cell-based, human
The subject of test [1] is pre-OPCs. The experiment in a line: HD-DoE 12-factor model for stage 2 (version 1), 3 days on stage 1 pre-OPCs. As to conditions: optimized for maximum expression of OLIG2 at 1841.6; negative impact. An excerpt:
To engineer the recipe of stage 2 of differentiation, cells were first cultured in the stage 1 media described in Example 1 and then treated with combinations of 8 or 12 factors for 3 days and the gene expression of cells in each condition was modeled. At this point, due to short duration of culture (only six days in vitro), we decided to focus on maximal expression of OLIG2 and maintenance of high expression of NKX2-2, while initiating expression of SOX10, OLIG1 and PDGFRa, to guide the cells towards oligodendrocyte fate (Emery and Lu (2015). Cold Spring Harb Perspect Biol. 7:a020461; Perlman et al. (2020). Glia 68:1291-1303; Goldman and. Kuypers (2015) Development 142:3983-95).
In one 12-factor model, the individual and combinatorial impact of SUN 11602 an agonist for FGF signaling pathway, FGF2, Activin A an activator of one of the receptors of TGF-b superfamily, A 8301, an inhibitor of TGF-b pathway, CHIR99021 a WNT activator, AGN193109 a RA antagonist, MK2206 an AKT inhibitor, Purmorphamine an agonist of SHH signaling pathway, AZD3147 an antagonist of mTOR pathway, MHY1485 an agonist of mTOR pathway, SC79 an agonist of AKT pathway and G06983 an inhibitor of PKC pathway, were tested.
Dynamic profile analysis was used to assess the expression levels of other genes of interests, such as NKX2-2, OLIG1 and SOX10, while the model is maximized for OLIG2. Activin A and SUN 11602 were brought down to zero due to their very low factor contribution. We observed when the model is optimized, the expression level of NKX2-2 is at 3000, PDGFRa at 1000, OLIG1 at 80 and SOX10 at 15 (FIG. 12).

Test [2] has as its system pre-OPCs. The experiment in a line: HD-DoE second 12-factor model for stage 2 (Purmorphamine with TTNPB, Biotin, Insulin etc.). The following applies: optimized for OLIG2; input for minimal expression (negative). The procedure:
To gain more information about the effect of Purmorphamine on differentiation of pre-OPCs to a more committed cell population, we tested this factor in two other models. In a 12-factor model, we included Purmorphamine, FGF2, AGN193109 and CHIR99021 along with 8 new inputs including TTNPB, Biotin, Insulin, propionate, DBZ, Yhhu3792, LDN193189 and Y-27632. […] In another 12-factor model, Purmorphamine was tested along with A 8301, CHIR99021, Dexamethasone, T3+T4, PD0325901, ZM336372, DBZ, BMP7, PD173074, SANT-1 and PDGF-AA.

Test [3] deals with pre-OPCs. The experiment in a line: HD-DoE 8-factor model for stage 2 (version 2) on pre-OPCs. The following applies: negative impact. The procedure: To engineer the recipe of stage 2 of differentiation, cells were first cultured in the stage 1 media described in Example 1, then, 48 or 96 different combinations of effectors generated using Design-of-Experiments compression through D-optimality were robotically prepared. The effector combinations were prepared in a basal media and were subsequently added to the cells, which were then allowed to differentiate. Three days later RNA extraction was performed, and gene expression was obtained using quantitative PCR analysis. The data was normalized and modeled using partial least squares regression analysis to the effector design, resulting in the generation of gene-specific models, which after model tuning for maximal predictive power, provided explanation of the effectors ability to control the expression of individual genes, combinatorically, and individually. Solutions within the tested space could then be explored to address desirability.
At this point, due to short duration of culture (only six days in vitro) we decided to focus on maximal expression of OLIG2 and maintenance of high expression of NKX2-2, while initiating expression of SOX10, OLIG1 and PDGFRa, to guide the cells towards oligodendrocyte fate (Emery and Lu (2015). Cold Spring Harb Perspect Biol. 7:a020461; Perlman et al. (2020). Glia 68:1291-1303; Goldman and Kuypers (2015) Development 142:3983-95). In one 8-factor model, the individual and combinatorial impact of CHIR99021 (a WNT pathway agonist), AGN193109 (an RA pathway antagonist), FGF-2 (an FGFR agonist), Purmorphamine (an SHH pathway agonist), AICAR (an AMPK agonist), GW3965 (an LXR pathway agonist), GW590735 (a PPAR-a agonist) and AZD3147 (a mTOR antagonist) on further differentiation of cells were tested.

For test [4], the system named is cells cultured in stage 1 and stage 2 differentiation media. The experiment in a line: Two further HD-DoE models optimized for SOX10 (IGF-1, FGF-2, AGN193109). An excerpt:
According to literature, proteins such as FGF-2, IGF-1, PDGF-AA and NT-3 play an important role in oligodendrocyte differentiation (Goldman and Kuypers (2015) Development 142:3983-95). In the first model, FGF-2 had positive regulatory impact only on the expression level of SOX10 and IGF-1 on PDGFRa. Therefore, to further understand the impact of IGF-1 and FGF-2 on differentiation of cells and confirm their positive role, we included these factors in two other models and optimized the models for maximum expression of SOX10. This gene is one of the main transcription factors of oligodendrocytes, along with OLIG2 and NKX2-2 that has shown the potential to commit the stem cells to oligodendrocytes in reprogramming efforts (Wang et al, (2014) Proc Natl Arad Sri USA 111:E2885-94; García-León et al. (2018) Stem Cell Reports 10:655-672).

Test [5] deals with OPCs. The experiment in a line: HD-DoE 8-factor model for stage 4 on OPCs. The following applies: optimized for maximal expression of CNP at 1339. How it is done: (§1) To engineer the recipe of stage 4 of differentiation, 48 or 96 different combinations of effectors generated using Design-of-Experiments compression through D-optimality were robotically prepared. The effector combinations were prepared in a basal media and were subsequently added to the cells, which were treated with the stage 1, stage 2 and stage 3 differentiation media as described in the earlier examples to generate OPCs. […] Solutions within the tested space could then be explored to address desirability.

For test [6], the system named is OPCs. Put plainly: HD-DoE 12-factor model for stage 4 on OPCs, 6 days in culture. The procedure: as §1, with “desirability. […] Benarroch (2009) Neurology 72:1779-1785; Shi et al. (2019) Exp Ther Med, 18:1258-1266).” for “desirability.”
For test [7], the system named is cells cultured in stage 1 and stage 2 differentiation media. The experiment in a line: HD-DoE 8-factor model for stage 3 (version 2). How it is done:
To further differentiate the cells to an oligodendrocyte progenitor identity, additional HD-DoE experiments were performed on the cells that were cultured in stage 1 and stage 2 differentiation media. After 3 days, gene expression of cells in different combinatorial conditions were investigated. At this time, we focused on maximal expression of signature oligodendrocyte progenitor genes such as SOX10, OLIG1 and PDGFRa (Goldman and Kuypers (2015) Development 142:3983-95: Marques et al. (2016) Science 352:1326-1329). In one 8-factor model, individual and combinatorial effects of TTNPB (an RA agonist), CHIR99021, FGF-2, IGF-1, AGN193109, Purmorphamine, MHY1485 (a mTOR pathway agonist) and SC79 (an AKT pathway agonist) were tested to guide the cells toward a SOX10/PDGFRa positive population. […] CHIR99021 was also positive, with a factor contribution of 8.1 (FIG. 33).
Other positive factors were IGF-1, with a factor contribution of 11.2, CHIR99021, with a factor contribution of 8.5 and TTNPB, with a factor contribution below 1 (FIG. 34).
To confirm the impact of TTNPB, FGF-2 and IGF-1 on a bigger scale, we investigated the expression profile of a larger group of genes defining late oligodendrocyte progenitor population, such as ID2, CSPG4, FYN, SOX8, PLP1 and BCAN (Perlman et al. (2020). Glia 68:1291-1303; Goldman and Kuypers (2015) Development 142:3983-95; van Tilborg et al. (2018) Glia 66:221-238) and neuronal genes such as NEUROD1, NEUROG1 and NEUROG2 in presence of IGF-1, FGF-2 or TTNPB.

[8] abbreviates: optimized for CNP at 1790, negative impact.
The mark [9] stands for this setting: optimized for CNP at 1790, positive.

Values joined by “and” are separate entries in the source; they are usually repeats but may differ in a detail not shown here. Identical values can stand only once.

As to `Cc1ccc(C2=CCC(C)(C)c3ccc(C#Cc4ccc(C(=O)O)cc4)cc32)cc1` [AGN193109], the factor contribution in test [1] was 23.2; in test [2], 18.3; in test [3] (optimized for maximum expression of OLIG1 at 454.7), 25.3; in test [3] (optimized for maximum expression of OLIG2 at 3325) it was 25.8; in test [4] (increasing level of SOX10, positive effect) it was 16.

In the case of `O=C(O)CCCC[C@@H]1SC[C@@H]2NC(=O)N[C@@H]21` [Biotin], the factor contribution in test [5] (negative impact) was 12; in test [6] (setting [8]) it was 16 and 16.5.

Take `N[C@@H](Cc1cc(I)c(Oc2ccc(O)c(I)c2)c(I)c1)C(=O)O` [T3]: the figures for the factor contribution in test [5] (positive) and in test [6] (setting [8]) were 18 and 1.2, respectively. Besides, in test [6] (factor effect plots), the “effect on other OL genes and neuronal gene NeuroG1” value was “can upregulate other OL genes such as PLP1, PTGDS, KLK6 and MBP while downregulating neuronal gene NeuroG1”.

In the case of “IGF-1: IGFR activator (insulin-like growth factor 1)”, the “effect on late OPC genes and neuronal genes” value in test [7] (factor plots vs concentration) is reported as “expression levels of OPC genes increased as the concentration of IGF-1 increased, while neuronal genes decreased”. Moreover, the factor contribution is 11.2 in test [7] (optimized for maximum expression of PDGFRa at 853.4, positive); “below 1” in test [5] (positive); 5 in test [6] (setting [9]). Also, the “impact on the expression level of SOX10” value in test [4] (two other models optimized for SOX10) is reported as “positive impact”.

Regarding Insulin: insulin receptor agonist, the factor contribution is 10 in test [5] (positive); 3 in test [6] (setting [9]); 13 and 13.2 in test [6] (optimized for PLP1 at 3600, positive).

The values are drawn from US12729368B2, “Methods and compositions for generating oligodendrocyte progenitor cells” (Trailhead Biosystems Inc., priority 2022, dated 2026).
